{
  "source": "patent US20070197471A1",
  "about": "“Treatment of degenerative cartilage conditions in a mammal with Glycosidasc Inhibitors” (Optimer Pharmaceuticals, Inc., priority 2004, published 2007)",
  "key": {"[1]": {"test_system": "rabbit knee after ACL transection", "assay": "ACL transection (ACLT) osteoarthritis model in the rabbit knee, continuous intra-articular infusion", "format": "in vivo", "conditions": "8 weeks after ACLT; for chondro-degenerative pathology to the knee joint: 30 mM via Alzet pump 2.5 μl/hour intra-articular, vs saline-treated animals", "procedure": "The model used in this study is the transection of the anterior cruciate ligament (ACL) in the rabbit knee. ACL transection (ACLT) causes joint instability and subsequent development of degradative and osteoarthritis-like changes.\nFemale New Zealand White rabbits, 3.0-3.5 kg, were used and were randomly allocated into groups of 8 rabbits. Group A was the saline-treated control group; Group B was treated with 30 mM of the hexosaminidase inhibitor (2R,3R,4R,5R)-N-methyl-(2-acetamidomethyl-3,4-dihydroxy-5-hydroxymethyl)-pyrrolidine, which is also known as OPT-66. All the compounds were delivered by a 2ml Alzet osmotic pump (Alzet 2ML4, Alza, USA). The delivery rate from the pump was 2.5 μl/hour. All rabbits received ACLT surgery on the right knee.\nAll rabbits were anesthetized by an intramuscular injection of ketamine (35 mg/kg) and acepromazine (2.5 mg/kg). Knees were shaved and disinfected with Antibex (Vetoquinol S.A.) solution. A medial parapatellar incision was made on the skin and a medial arthrotomy was performed. The patella was dislocated laterally and the knee was placed in full flexion. The ACL was visualized and transected with a #15 blade. Complete transection was confirmed by a manual anterior drawer test. The joint was irrigated with sterile saline then closed. Before the closure of knee joint, an Alzet pump prefilled with compounds (either with saline or with the hexosaminidase inhibitor (2R,3R,4R,5R)-N-methyl-(2-acetamidomethyl-3,4-dihydroxy-5-hydroxymethyl)-pyrrolidine, also known as OPT-66, was implanted subcutaneously in the lower right abdomen of rabbits. The pump was connected by polyethylene tubing (ID: 0.58 mm), which was inserted into the right knee joint with its tip resting in the synovial space. The joint capsule was closed with a running suture and the tubing connecting the pump was also fixed into the tissue. The skin was closed with interrupted sutures. The Alzet pumps were replaced with fresh units at the end of the fourth week after the operation.\nThe animals were sacrificed eight (8) weeks after ACLT. The gross morphological changes of both knees, including joint swelling and joint fluid, were evaluated.\nThe grading of the joint swelling is as following: 0 (normal); 1 (mild), inflammation and/or proliferation of the joint capsule; 2 (moderate), thickening of joint capsule and/or inflammation of the synovium; 3 (severe) abundant inflammation of the synovium, swelling of the menisci or ligaments (anterior or posterior cruciate ligaments)."}, "[2]": {"test_system": "IL-1β-infused rabbit knee joint (tibial plateau cartilage)", "assay": "IL-1β-induced sGAG loss in rabbit knee cartilage, continuous intra-articular infusion", "format": "in vivo", "procedure": "Female New Zealand White rabbits, 3.0-3.5 kg, were used and were randomly allocated into groups of 8 rabbits. Under aseptic conditions, 2 ml Alzet osmotic pumps (delivery flow rate: 10 μl/h, (Alzet 2ML1, Alza, USA)) were filled with IL-1β (1000 U/ml; R&D Systems, USA). Separate 2 ml Alzet pumps were filled with 30 mM of the hexosaminidase inhibitor (2R,3R,4R,5R)-N-methyl-(2-acetamidomethyl-3,4dihydroxy-5-hydroxymethyl)-pyrrolidine, also known as OPT-66, or with saline. The Alzet pumps were implanted subcutaneously in the lower abdomen of rabbits, and were connected by a polyethylene tubing (ID: 0.025 in) threaded subcutaneously to the left knee joint with their tips resting in the synovial space. The untreated contralateral knees of all animals served as negative controls. IL-1β and (2R,3R,4R,5R)-N-methyl-(2-acetamidomethyl-3,4-diydroxy-5-hydroxymethyl)-pyrrolidine were infused intra-articularly for 7 days. Immediately before surgery, and for 3 consecutive days thereafter, Marbocyl, 6 mg/kg/day, is administered (i.m.) to prevent infection. Animals were harvested on day 7. […]\nBlyscan dye (Biocolor, USA) was added to each tube and vortexed. […] The absorbance of the sample was then observed at 656 nm using a spectrophotometer. […] The absorbance of the blank was subtracted from each sample. Results are expressed as micrograms of sGAG recovered per milligram wet weight of cartilage tissue."}, "[3]": {"target": "hexosaminidase", "conditions": "read-out: Ki against hexosaminidase; cited from earlier work"}, "[4]": {"test_system": "cultured chondrocytes", "conditions": "cited from earlier work"}},
  "data": [
    {"smiles": "CC(=O)NCC1C(O)[C@H](O)C(CO)N1C", "note": "(stereo partly drawn) [OPT-66, (2R,3R,4R,5R)-N-methyl-(2-acetamidomethyl-3,4-dihydroxy-5-hydroxymethyl)-pyrrolidine]", "values": [
      {"measurement": "chondro-degenerative pathology to the knee joint", "setting": "[1]", "result": "consistently less chondro-degenerative pathology"},
      {"measurement": "chondro-degenerative pathology to the knee joint", "setting": "[1]; listed as specific hexosaminidase inhibitor", "result": "chondroprotective benefit"},
      {"measurement": "severity of femur lesion scores", "setting": "[1]; 30 mM via Alzet pump, vs saline-treated animals (FIG. 1)", "result": "statistically significant decrease"},
      {"measurement": "severity of tibia lesion scores", "setting": "[1]; 30 mM via Alzet pump, vs saline-treated animals (FIG. 2)", "result": "statistically significant decrease"},
      {"measurement": "joint swelling grading", "setting": "[1]; 30 mM via Alzet pump, vs saline-treated animals (FIG. 3)", "result": "trend towards decreased joint-swelling"},
      {"measurement": "synovial (joint) fluid grading", "setting": "[1]; 30 mM via Alzet pump, vs saline-treated animals (FIG. 4)", "result": "normal levels of fluid in the knee joint"},
      {"measurement": "amount of recoverable sGAG per wet weight of left tibial plateau cartilage", "setting": "[2]; IL-1β 1000 U/ml plus 30 mM inhibitor infused intra-articularly for 7 days (FIG. 5)", "result": "approximately 41 μg/mg"},
      {"measurement": "increase of recoverable sGAG over saline-treated knees", "setting": "[2]; IL-1β plus 30 mM inhibitor infused intra-articularly for 7 days", "result": 24, "unit": "%"},
      {"measurement": "Ki", "setting": "[3]", "result": 24, "unit": "nM"},
      {"measurement": "cytokine-induced loss of GAGs", "setting": "[4]", "result": "preventing cytokine-induced loss of GAGs"}
    ]}
  ]
}
